Assay results published in ChEMBL document CHEMBL5528070, “Design and Synthesis of Dual-Target Inhibitors Targeting Androgen Receptors and Glucocorticoid Receptors to Overcome Antiandrogen Resistance in Castration-Resistant Prostate Cancer” (J Med Chem, 2024).
Values belong to the compound of their own block, whether it stands above or below them.

Assays:
[1] = tested on: LNCaP C4-2; assay: Antiproliferative activity against human C4-2 cells assessed as reduction in cell viability measured after 72 hrs by CCK-8 method; settings: LNCaP C4-2, 72 h
[2] = tested on: PC-3; assay: Antiproliferative activity against human PC-3 cells assessed as reduction in cell viability measured after 72 hrs by CCK-8 method; settings: PC-3, 72 h
[3] = Antiproliferative activity against African green monkey COS-7 cells assessed as reduction in cell viability measured after 72 hrs by CCK-8 method; settings: chlorocebus aethiops
[4] = tested on: LNCaP; assay: Antiproliferative activity against human LNCaP cells assessed as reduction in cell viability measured after 72 hrs by CCK-8 method
[5] = tested on: CWR22R; assay: Antiproliferative activity against human 22Rv1 cells assessed as reduction in cell viability measured after 72 hrs by CCK-8 method; settings: 22Rv1, 72 h
[6] = tested on: DU-145; assay: Antiproliferative activity against human DU-145 cells assessed as reduction in cell viability measured after 72 hrs by CCK-8 method; settings: DU-145, 72 h
[7] = molecular target: T1, Glucocorticoid receptor (Homo sapiens, UniProt P04150); settings: pc-3
T1 sequence (P04150 whole entry): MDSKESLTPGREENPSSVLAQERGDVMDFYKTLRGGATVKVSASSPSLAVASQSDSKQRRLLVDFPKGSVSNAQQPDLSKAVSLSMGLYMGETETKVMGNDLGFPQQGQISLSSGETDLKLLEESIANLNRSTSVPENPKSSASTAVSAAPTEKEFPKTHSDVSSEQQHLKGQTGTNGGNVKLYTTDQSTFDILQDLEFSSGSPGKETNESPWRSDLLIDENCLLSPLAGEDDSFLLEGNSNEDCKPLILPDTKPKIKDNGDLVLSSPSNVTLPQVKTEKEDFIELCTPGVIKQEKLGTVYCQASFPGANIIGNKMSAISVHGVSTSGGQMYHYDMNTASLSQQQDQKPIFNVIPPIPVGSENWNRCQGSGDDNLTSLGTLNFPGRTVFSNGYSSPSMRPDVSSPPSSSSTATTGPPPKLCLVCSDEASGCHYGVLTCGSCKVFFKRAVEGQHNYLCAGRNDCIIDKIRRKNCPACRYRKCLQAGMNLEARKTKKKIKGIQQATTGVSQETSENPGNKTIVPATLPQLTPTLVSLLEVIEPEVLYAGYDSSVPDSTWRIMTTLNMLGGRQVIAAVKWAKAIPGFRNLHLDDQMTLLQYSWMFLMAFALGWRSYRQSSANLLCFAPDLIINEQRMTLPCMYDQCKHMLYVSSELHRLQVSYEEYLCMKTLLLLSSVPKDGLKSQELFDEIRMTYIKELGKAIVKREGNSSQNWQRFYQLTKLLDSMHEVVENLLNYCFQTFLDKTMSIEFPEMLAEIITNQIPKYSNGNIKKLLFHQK
Description: (§1) Inhibition of glucocorticoid receptor transcription in human PC-3 cells cotransfected with MMTV-luc and renilla plasmid at incubated for 24 hrs by Dual luciferase assay

[8] = molecular target: T2, Androgen receptor (Homo sapiens, UniProt P10275)
T2 sequence (P10275 whole entry): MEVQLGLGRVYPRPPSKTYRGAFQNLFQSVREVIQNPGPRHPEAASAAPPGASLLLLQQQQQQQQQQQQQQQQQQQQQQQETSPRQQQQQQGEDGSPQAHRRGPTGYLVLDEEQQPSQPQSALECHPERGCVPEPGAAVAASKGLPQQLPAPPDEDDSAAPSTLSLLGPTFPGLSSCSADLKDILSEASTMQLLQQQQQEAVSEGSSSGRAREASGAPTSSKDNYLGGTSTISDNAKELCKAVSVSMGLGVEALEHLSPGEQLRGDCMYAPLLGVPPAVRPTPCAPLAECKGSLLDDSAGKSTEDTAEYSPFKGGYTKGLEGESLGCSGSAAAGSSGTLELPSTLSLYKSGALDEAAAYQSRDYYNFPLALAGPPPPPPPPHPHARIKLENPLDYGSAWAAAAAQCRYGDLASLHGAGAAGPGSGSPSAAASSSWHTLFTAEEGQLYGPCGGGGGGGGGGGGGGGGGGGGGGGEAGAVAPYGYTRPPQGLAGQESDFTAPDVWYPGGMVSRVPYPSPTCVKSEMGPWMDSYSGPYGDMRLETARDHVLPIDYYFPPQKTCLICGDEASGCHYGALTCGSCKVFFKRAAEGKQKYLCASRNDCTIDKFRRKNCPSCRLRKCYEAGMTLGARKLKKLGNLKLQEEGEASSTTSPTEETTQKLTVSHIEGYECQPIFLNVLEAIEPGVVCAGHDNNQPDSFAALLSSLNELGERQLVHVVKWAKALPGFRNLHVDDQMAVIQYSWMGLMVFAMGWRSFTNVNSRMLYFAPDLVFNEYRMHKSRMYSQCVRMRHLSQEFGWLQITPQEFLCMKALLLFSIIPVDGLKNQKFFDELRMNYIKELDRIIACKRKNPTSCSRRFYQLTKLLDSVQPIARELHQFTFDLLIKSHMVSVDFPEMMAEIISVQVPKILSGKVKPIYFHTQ

[9] = molecular target: T1, Glucocorticoid receptor
Description: as §1

[10] = molecular target: T2, Androgen receptor; assay: Antagonist activity at androgen receptor in human LNCaP cells incubated for 24 hrs by luminescence based firefly luciferase assay

SMILES: CNC(=O)c1ccc(N2C(=S)N(c3cnc(C#N)c(C(F)(F)F)c3)C(=O)C23CCC3)cc1F [APALUTAMIDE]
CC50 [1]: 41.7 µM | CC50 [2]: > 50 µM | CC50 at 72 h [3]: > 50 µM | CC50 [4]: 9.72 µM | CC50 [5]: > 50 µM | CC50 [6]: > 50 µM

IC50 [7]: Not Active
SMILES: CNC(=O)c1ccc(N2C(=S)N(c3ccc(C#N)c(C(F)(F)F)c3)C(=O)C2(C)C)cc1F [ENZALUTAMIDE]

IC50 [8]: 200 nM
SMILES: O=C(Nc1ccc(C(=O)NC2CC2)s1)c1cccc(S(=O)(=O)N2CCCc3ccccc32)c1

IC50 [9]: > 5 µM
SMILES: CCOC(=O)c1ccc(NC(=O)c2cccc(S(=O)(=O)Nc3ccc4ccccc4c3)c2)s1

IC50 [8]: 120 nM
SMILES: O=C(Nc1ccc(C(=O)NC23C[C@H]4C[C@H](C2)C[C@@H](C3)C4)s1)c1cccc(S(=O)(=O)N2CCCc3ccccc32)c1

SMILES: CC(O)c1cc(C(=O)N[C@@H](C)Cn2ccc(-c3ccc(C#N)c(Cl)c3)n2)n[nH]1 (stereo not given in full) [DAROLUTAMIDE]
CC50 [1]: 18.8 µM | CC50 [2]: > 50 µM | CC50 at 72 h [3]: > 50 µM | CC50 [4]: 7.04 µM | CC50 [5]: > 50 µM | CC50 [6]: > 50 µM

IC50 [8]: 120 nM
SMILES: CCOC(=O)c1ccc(NC(=O)c2ccc(S(=O)(=O)Nc3ccc(C)cc3)cc2)s1

IC50 [8]: > 5000 nM
SMILES: Cc1ccc(NC(=O)c2ccc(NC(=O)c3ccc(S(=O)(=O)N4CCCc5ccccc54)cc3)s2)cc1

IC50 [10]: 394 nM
SMILES: CCc1cccc(NS(=O)(=O)c2cc3c4c(c2)CCC(=O)N4CCC3)c1

IC50 [8]: 1700 nM
SMILES: CCOC(=O)c1ccc(NC(=O)c2cccc(S(=O)(=O)N3CCCc4ccccc43)c2)s1
